According to patent publication US10196390B2, “TYK2 inhibitors and uses thereof” (Nimbus Lakshmi, Inc., priority 2014, dated 2019):
Where two headings read alike, the source gives them in different places.

Assays:
JAK2 = JAK2 (Homo sapiens (Human), UniProt O60674); test: JAK2 activity inhibition assay (radioactive kinase assay / Caliper assay); format: biochemical; details: read-out: JAK2 Ki
Method in brief: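 Mobility-shift (Caliper) read-out of phosphorylated peptide substrate. Compound diluted in 25 mM HEPES pH 7.5, 0.01% Brij-35, 0.01% Triton, 0.5 mM EGTA; enzyme added, then peptide plus ATP in 10 mM MgCl2. Incubated 25 min at 28° C, stopped with EDTA buffer.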

Tyk2-pSTAT4 = test: IL-12 induced pSTAT4 in human PBMC; format: cell-based; details: read-out: Tyk2-pSTAT4 EC50
Description: (§1) Human PBMC are isolated from buffy coat and are stored frozen for assays as needed. Cells for assay are thawed and resuspended in complete media containing serum, then cells are diluted to 1.67 E6 cells/ml so that 120 μl per well is 200,000 cells. 15 μl of compound or DMSO is added to the well at the desired concentrations and incubated at 1 hr at 37 C. 15 μl of stimulus (final concentration of 1.7 ng/mL IL-12) is added for 30 minutes prior to pSTAT4 and total STAT4 analysis using cell lysates prepared and analyzed by MSD reagents as per manufacturer protocol. The final DMSO concentration of compound in the assay is 0.1%.

JAK2-pSTAT5 = test: GM-CSF induced pSTAT5 in human PBMC; format: cell-based; details: read-out: JAK2-pSTAT5 EC50
Description: as §1, with “Cells for assay are thawed and resuspended in complete media containing serum, then cells are diluted to 1.67 E6 cells/ml so that 120 μl per well is 200,000 cells.” left out
Cells are prepared for analysis as in the above procedure and 15 μl of GM-CSF (final concentration 5 ng/mL) is added for 20 minutes prior to pSTAT5 and total STAT5 analysis using cell lysates prepared and analyzed by MSD reagents as per manufacturer protocol. The final DMSO concentration of compound in the assay is 0.1%.

TYK2 = TYK2 (Homo sapiens (Human), UniProt P29597); test: Tyk2 activity inhibition assay (radioactive kinase assay / Caliper assay); format: biochemical
Sequence of TYK2 (P29597 whole entry): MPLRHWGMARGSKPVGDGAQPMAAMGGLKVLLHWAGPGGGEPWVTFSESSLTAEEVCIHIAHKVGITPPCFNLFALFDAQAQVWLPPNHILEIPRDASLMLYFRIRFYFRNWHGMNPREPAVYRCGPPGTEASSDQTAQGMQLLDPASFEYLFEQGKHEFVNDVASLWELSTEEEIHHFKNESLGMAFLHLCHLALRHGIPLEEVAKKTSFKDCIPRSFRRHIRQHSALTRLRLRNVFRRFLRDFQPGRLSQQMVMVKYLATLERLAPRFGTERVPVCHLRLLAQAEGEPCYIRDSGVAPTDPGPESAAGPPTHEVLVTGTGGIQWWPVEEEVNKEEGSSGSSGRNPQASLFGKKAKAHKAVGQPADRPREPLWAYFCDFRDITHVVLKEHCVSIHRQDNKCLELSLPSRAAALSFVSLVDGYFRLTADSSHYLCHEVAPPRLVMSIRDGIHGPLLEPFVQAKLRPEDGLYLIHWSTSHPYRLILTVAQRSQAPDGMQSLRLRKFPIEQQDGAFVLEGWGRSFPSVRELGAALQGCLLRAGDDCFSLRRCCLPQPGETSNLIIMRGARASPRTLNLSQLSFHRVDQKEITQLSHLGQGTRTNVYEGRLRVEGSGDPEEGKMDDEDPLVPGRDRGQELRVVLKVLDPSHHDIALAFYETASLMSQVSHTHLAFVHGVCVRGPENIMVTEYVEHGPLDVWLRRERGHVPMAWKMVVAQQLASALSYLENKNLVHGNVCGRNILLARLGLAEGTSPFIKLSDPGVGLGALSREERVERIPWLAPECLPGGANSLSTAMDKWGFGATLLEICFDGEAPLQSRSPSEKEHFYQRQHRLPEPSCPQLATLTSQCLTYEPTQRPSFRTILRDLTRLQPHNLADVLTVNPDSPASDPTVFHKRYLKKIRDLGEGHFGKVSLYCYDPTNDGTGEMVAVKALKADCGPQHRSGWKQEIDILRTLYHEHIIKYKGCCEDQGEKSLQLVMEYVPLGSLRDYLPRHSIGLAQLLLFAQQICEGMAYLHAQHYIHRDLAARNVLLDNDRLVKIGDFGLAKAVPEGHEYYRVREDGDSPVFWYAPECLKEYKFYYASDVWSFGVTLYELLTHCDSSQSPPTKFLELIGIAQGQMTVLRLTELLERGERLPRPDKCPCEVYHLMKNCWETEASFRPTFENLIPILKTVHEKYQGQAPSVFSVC
Method in brief: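 Radiometric format: TYK2 with peptide substrate (20 μM) and 33P-ATP at 10 μM in HEPES pH 7.5, 1% DMSO, 120 min at room temp, P81 paper capture. Caliper mobility-shift format: TYK2 9.75 nM, peptide 30 at 3 uM, ATP 16 uM (also 1 mM), 25 min at 28° C.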

[1] = IL-12 induced pSTAT4, human PBMC
[2] = GM-CSF induced pSTAT5, human PBMC

Sequence of JAK2 (O60674 whole entry): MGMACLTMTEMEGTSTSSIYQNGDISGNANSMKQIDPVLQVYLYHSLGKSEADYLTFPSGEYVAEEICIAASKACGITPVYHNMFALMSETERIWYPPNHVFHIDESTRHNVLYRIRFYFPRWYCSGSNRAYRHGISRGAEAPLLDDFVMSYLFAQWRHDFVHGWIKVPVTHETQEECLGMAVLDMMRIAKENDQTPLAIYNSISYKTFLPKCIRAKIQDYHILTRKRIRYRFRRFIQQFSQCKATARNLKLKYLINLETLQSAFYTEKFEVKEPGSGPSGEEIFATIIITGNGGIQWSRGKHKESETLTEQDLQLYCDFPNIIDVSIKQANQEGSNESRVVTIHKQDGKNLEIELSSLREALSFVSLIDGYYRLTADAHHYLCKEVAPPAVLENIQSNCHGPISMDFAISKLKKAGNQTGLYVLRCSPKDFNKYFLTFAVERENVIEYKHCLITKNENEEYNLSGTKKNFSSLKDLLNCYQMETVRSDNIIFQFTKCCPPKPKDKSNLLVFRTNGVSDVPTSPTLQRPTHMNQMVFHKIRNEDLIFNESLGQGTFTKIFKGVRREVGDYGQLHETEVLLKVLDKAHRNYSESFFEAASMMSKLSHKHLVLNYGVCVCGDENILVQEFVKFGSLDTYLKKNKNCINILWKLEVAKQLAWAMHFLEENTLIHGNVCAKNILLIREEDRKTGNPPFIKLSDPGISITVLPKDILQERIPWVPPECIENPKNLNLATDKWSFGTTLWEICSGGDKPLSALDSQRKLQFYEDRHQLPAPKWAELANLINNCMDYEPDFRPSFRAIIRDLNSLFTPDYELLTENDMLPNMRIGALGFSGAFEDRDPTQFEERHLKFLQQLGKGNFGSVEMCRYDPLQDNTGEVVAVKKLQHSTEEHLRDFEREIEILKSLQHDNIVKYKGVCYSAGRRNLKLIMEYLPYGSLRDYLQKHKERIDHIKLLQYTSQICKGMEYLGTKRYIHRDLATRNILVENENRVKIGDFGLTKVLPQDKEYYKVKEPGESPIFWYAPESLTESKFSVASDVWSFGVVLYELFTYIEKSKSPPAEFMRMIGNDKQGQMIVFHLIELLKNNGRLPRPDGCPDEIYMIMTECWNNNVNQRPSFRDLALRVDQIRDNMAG

Row | Ki (JAK2) | EC50 (Tyk2-pSTAT4; [1]) | EC50 (JAK2-pSTAT5; [2]) | Ki (TYK2) | Structure (SMILES) | EC50 (Tyk2-pSTAT4; Homo sapiens, PBMC) | EC50 (JAK2-pSTAT5; Homo sapiens, PBMC)
1 | 0.01 to 0.1 µM | < 2 µM | < 2 µM | – | O=C1NCc2nc(-c3c(F)cccc3F)cc(Nc3ccc(N4CCN(CC(F)F)CC4)cn3)c21 [Compound I-247, 4-((5-(4-(2,2-difluoroethyl)piperazin-1-yl)pyridin-2-yl)amino)-2-(2,6-difluorophenyl)-6,7-dihydro-5H-pyrrolo[3,4-b]pyridin-5-one] | – | –
2 | 0.01 to 0.1 µM | < 2 µM | > 20 µM | – | O=C1NCc2nc(-c3c(F)cccc3F)cc(Nc3ccc(N4CCCOCC4)cn3)c21 [Compound I-253, 4-((5-(1,4-oxazepan-4-yl)pyridin-2-yl)amino)-2-(2,6-difluoro-phenyl)-6,7-dihydro-5H-pyrrolo[3,4-b]pyridin-5-one] | – | –
3 | < 0.01 µM | < 2 µM | – | < 0.01 µM | O=C1NCc2nc(-c3c(F)cccc3F)cc(Nc3ccc(N4CC5(COC5)C4)cn3)c21 [Compound I-144, 4-((5-(2-oxa-6-azaspiro[3.3]heptan-6-yl)pyridin-2-yl)amino)-2-(2,6-difluorophenyl)-6,7-dihydro-5H-pyrrolo[3,4-b]pyridin-5-one] | – | –
4 | – | < 2 µM | < 2 µM | – | CC1(C)CCC(=O)N1c1ccc(Nc2cc(-c3c(F)cccc3F)nc3c2C(=O)NC3)nc1 [Compound I-272, 2-(2,6-difluorophenyl)-4-((5-(2,2-dimethyl-5-oxopyrrolidin-1-yl)pyridin-2-yl)amino)-6,7-dihydro-5H-pyrrolo[3,4-b]pyridin-5-one] | – | –
5 | – | – | – | – | Cc1ccc(Nc2nc(-c3c(F)cccc3F)nc3c2C(=O)NC3)cc1 [Compound I-21, 2-(2,6-difluorophenyl)-4-(p-tolylamino)-6,7-dihydro-5H-pyrrolo[3,4-d]pyrimidin-5-one] | < 2 µM | > 20 µM
6 | – | < 2 µM | < 2 µM | – | CC(C)N1CCN(c2ccc(Nc3cc(-c4c(F)cccc4F)nc4c3C(=O)NC4)nc2)CC1 [Compound I-256, 2-(2,6-difluorophenyl)-4-((5-(4-isopropylpiperazin-1-yl)pyridin-2-yl)amino)-6,7-dihydro-5H-pyrrolo[3,4-b]pyridin-5-one] | – | –
7 | < 0.01 µM | – | – | < 0.01 µM | N#Cc1cccc(F)c1-c1cc(Nc2ccc(N3CCOCC3)cn2)c2c(n1)CNC2=O [Compound I-281, 3-fluoro-2-(4-((5-morpholinopyridin-2-yl)amino)-5-oxo-6,7-dihydro-5H-pyrrolo[3,4-b]pyridin-2-yl)benzonitrile] | – | –
8 | 0.1 to 1 µM | – | – | < 0.01 µM | C[C@H](CO)NC(=O)Cc1ccc(Nc2nc(-c3c(F)cccc3F)nc3c2C(=O)NC3)cc1 [Compound I-63, (R)-2-(4-((2-(2,6-difluorophenyl)-5-oxo-6,7-dihydro-5H-pyrrolo[3,4-d]pyrimidin-4-yl)amino)phenyl)-N-(1-hydroxypropan-2-yl)acetamide] | – | –
9 | > 1 µM | – | – | < 0.01 µM | O=C(O)Cc1ccc(Nc2nc(-c3c(F)cccc3F)nc3c2C(=O)NC3)cc1 [Compound I-2, 2-(4-((2-(2,6-difluorophenyl)-5-oxo-6,7-dihydro-5H-pyrrolo[3,4-d]pyrimidin-4-yl)amino)phenyl)acetic Acid] | – | –
10 | 0.1 to 1 µM | – | – | < 0.01 µM | CCOC(=O)Cc1ccc(Nc2nc(-c3c(F)cccc3F)nc3c2C(=O)NC3)cc1 [Compound I-3, ethyl 2-(4-((2-(2,6-difluorophenyl)-5-oxo-6,7-dihydro-5H-pyrrolo[3,4-d]pyrimidin-4-yl)amino)phenyl)acetate] | – | –
11 | – | < 2 µM | 2 to 20 µM | – | O=C1NCc2nc(-c3c(F)cccc3F)cc(Nc3ccc(N4CCCC4)cn3)c21 [Compound I-205, 2-(2,6-difluorophenyl)-4-((5-(pyrrolidin-1-yl)pyridin-2-yl)ami-no)-6,7-dihydro-5H-pyrrolo[3,4-b]pyridin-5-one] | – | –
12 | 0.1 to 1 µM | – | – | < 0.01 µM | O=C1NCc2nc(-c3c(F)cccc3F)nc(Nc3ccc([C@@H]4CCCNC4=O)cc3)c21 [Compound I-155, (S)-2-(2,6-difluorophenyl)-4-((4-(2-oxopiperidin-3-yl)phenyl)-amino)-6,7-dihydro-5H-pyrrolo[3,4-d]pyrimidin-5-one] | – | –
13 | 0.1 to 1 µM | – | – | < 0.01 µM | O=C1NC(=O)C(c2ccc(Nc3nc(-c4c(F)cccc4F)nc4c3C(=O)NC4)cc2)S1 (stereo not shown) [Compound I-192, 5-(4-((2-(2,6-difluorophenyl)-5-oxo-6,7-dihydro-5H-pyrrolo[3,4-d]pyrimidin-4-yl)amino)phenyl)thiazolidine-2,4-dione] | – | –
14 | > 1 µM | – | – | < 0.01 µM | O=C1NCc2nc(-c3c(F)cccc3Cl)cc(Nc3ccc(N4CCCC4)cn3)c21 [Compound I-204, 2-(2-chloro-6-fluorophenyl)-4-((5-(pyrrolidin-1-yl)pyridin-2-yl)amino)-6,7-dihydro-5H-pyrrolo[3,4-b]pyridin-5-one] | – | –
15 | > 1 µM | – | – | 0.01 to 0.1 µM | O=C(O)Cc1ccc(Nc2nc(-c3ccccc3Cl)nc3c2C(=O)NC3)cc1 [Compound I-7, 2-(4-((2-(2-chlorophenyl)-5-oxo-6,7-dihydro-5H-pyrrolo[3,4-d]pyrimidin-4-yl)amino)phenyl)acetic Acid] | – | –
16 | 0.1 to 1 µM | – | – | < 0.01 µM | CN1CC[C@@](C)(c2ccc(Nc3nc(-c4c(F)cccc4F)nc4c3C(=O)NC4)cc2)C1=O [Compound I-151, (S)-2-(2,6-difluorophenyl)-4-((4-(1,3-dimethyl-2-oxopyrrolidin-3-yl)phenyl)amino)-6,7-dihydro-5H-pyrrolo[3,4-d]pyrimidin-5-one] | – | –
17 | 0.1 to 1 µM | – | – | 0.01 to 0.1 µM | C=C(C(=O)NCC)c1ccc(Nc2nc(-c3c(F)cccc3F)nc3c2C(=O)NC3)cc1 [Compound I-203, 2-(4-((2-(2,6-difluorophenyl)-5-oxo-6,7-dihydro-5H-pyrrolo[3,4-d]pyrimidin-4-yl)amino)phenyl)-N-ethylacrylamide] | – | –
18 | 0.1 to 1 µM | – | – | < 0.01 µM | O=C(O)Cc1ccc(Nc2cc(-c3c(F)cccc3F)nc3c2C(=O)NC3)nc1 [Compound I-186, 2-(6-((2-(2,6-difluorophenyl)-5-oxo-6,7-dihydro-5H-pyrrolo[3,4-b]pyridin-4-yl)amino)pyridin-3-yl)acetic Acid] | – | –
19 | 0.1 to 1 µM | – | – | < 0.01 µM | O=C1NCc2nc(-c3c(F)cccc3F)nc(Nc3ccc([C@H]4CCN(CCN5CCOCC5)C4=O)cc3)c21 [Compound I-122, (R)-2-(2,6-difluorophenyl)-4-((4-(1-(2-morpholinoethyl)-2-oxopyrrolidin-3-yl)phenyl)amino)-6,7-dihydro-5H-pyrrolo[3,4-d]pyrimidin-5-one] | – | –
20 | 0.1 to 1 µM | – | – | 0.01 to 0.1 µM | O=C1NCc2nc(-c3c(F)cccc3F)nc(Nc3ccc(C(=O)N4CC5(COC5)C4)cc3)c21 [Compound I-157, 4-((4-(2-oxa-6-azaspiro[3.3]heptane-6-carbonyl)phenyl)amino)-2-(2,6-difluorophenyl)-6,7-dihydro-5H-pyrrolo[3,4-d]pyrimidin-5-one] | – | –
21 | 0.01 to 0.1 µM | – | – | < 0.01 µM | O=C1NCc2nc(-c3c(F)cccc3F)nc(Nc3ccc(CC(=O)N4CCS(=O)(=O)CC4)cc3)c21 [Compound I-84, 2-(2,6-difluorophenyl)-4-((4-(2-(1,1-dioxidothiomorpholino)-2-oxoethyl)phenyl)amino)-6,7-dihydro-5H-pyrrolo[3,4-d]pyrimidin-5-one] | – | –

Row | Structure (SMILES) | Ki (JAK2) | EC50 (Tyk2-pSTAT4; [1]) | EC50 (JAK2-pSTAT5; [2]) | Ki (TYK2) | EC50 (Tyk2-pSTAT4; Homo sapiens, PBMC) | EC50 (JAK2-pSTAT5; Homo sapiens, PBMC)
22 | O=C1NCc2nc(-c3c(F)cccc3F)cc(Nc3ccc(N4CC(F)(F)C4)cn3)c21 [Compound I-229, 4-((5-(3,3-difluoroazetidin-1-yl)pyridin-2-yl)amino)-2-(2,6-difluorophenyl)-6,7-dihydro-5H-pyrrolo[3,4-b]pyridin-5-one] | 0.01 to 0.1 µM | – | 2 to 20 µM | – | < 2 µM | –
23 | O=C(NCCN1CCOCC1)c1ccc(Nc2nc(-c3c(F)cccc3F)nc3c2C(=O)NC3)cc1 [Compound I-127, 4-((2-(2,6-difluorophenyl)-5-oxo-6,7-dihydro-5H-pyrrolo[3,4-d]pyrimidin-4-yl)amino)-N-(2-morpholinoethyl)benzamide] | 0.01 to 0.1 µM | – | – | < 0.01 µM | – | –
24 | CCNC(=O)Cc1ccc(Nc2nc(-c3c(F)cncc3F)nc3c2C(=O)NC3)cc1 [Compound I-208, 2-(4-((2-(3,5-difluoropyridin-4-yl)-5-oxo-6,7-dihydro-5H-pyrrolo[3,4-d]pyrimidin-4-yl)amino)phenyl)-N-ethylacetamide] | > 1 µM | – | – | 0.1 to 1 µM | – | –
